Our source for the mutagenic call values is PubChem BioAssay AID1259407 (Chemical Carcinogenesis Research Information System (CCRIS), 2018).

Calls of active or inactive are those of the source. The rule behind the calls is not given here.

This data set relates to CCRIS mutagenicity, Ames/micronucleus/aberration tests. As to the kind of experiment: CCRIS mutagenicity studies.
Where [1] appears, read: End Point: IN VITRO CHROMOSOMAL ABERRATIONS, Test System: CHL CELLS, Metabolic Activation: RAT, LIVER, S-9, SODIUM PHENOBARBITAL AND 5,6-BENZOFLAVONE

As to `NN`, the mutagenic call is, setting by setting: (End Point: IN VITRO CHROMOSOMAL ABERRATIONS, Test System: CHL CELLS, Metabolic Activation: NONE) “active; positive (structural changes)”; under setting [1], “active; positive (structural changes)”; (Test System: AMES SALMONELLA TYPHIMURIUM, Strain/Indicator: G46, Metabolic Activation: HAMSTER, LIVER, HOMOGENATE, Method: PREINCUBATION) “active; positive”; (Test System: AMES SALMONELLA TYPHIMURIUM, Strain/Indicator: G46, Metabolic Activation: MOUSE, LIVER, HOMOGENATE, Method: PREINCUBATION) “active; positive”; (Test System: AMES SALMONELLA TYPHIMURIUM, Strain/Indicator: G46, Metabolic Activation: RAT, LIVER, HOMOGENATE, Method: PREINCUBATION) “active; positive”; (Test System: AMES SALMONELLA TYPHIMURIUM, Strain/Indicator: TA98, Metabolic Activation: RAT LIVER S-9, PHENOBARBITAL AND BETA-NAPHTHOFLAVONE, Method: PREINCUBATION) “inactive; negative”. The mutagenic call runs as follows: (Test System: AMES SALMONELLA TYPHIMURIUM, Strain/Indicator: TA100, Metabolic Activation: RAT LIVER S-9, PHENOBARBITAL AND BETA-NAPHTHOFLAVONE, Method: PREINCUBATION) “inactive; negative”; (Test System: AMES SALMONELLA TYPHIMURIUM, Strain/Indicator: TA102, Metabolic Activation: NONE, Method: PREINCUBATION) “active; positive”; (Test System: AMES SALMONELLA TYPHIMURIUM, Strain/Indicator: TA102, Metabolic Activation: NONE, Method: STANDARD PLATE) “inactive; negative”; (Test System: AMES SALMONELLA TYPHIMURIUM, Strain/Indicator: TA1535, Metabolic Activation: HAMSTER, LIVER, HOMOGENATE, Method: PREINCUBATION) “active; positive”; (Test System: AMES SALMONELLA TYPHIMURIUM, Strain/Indicator: TA1535, Metabolic Activation: MOUSE, LIVER, HOMOGENATE, Method: PREINCUBATION) “active; positive”; (Test System: AMES SALMONELLA TYPHIMURIUM, Strain/Indicator: TA1535, Metabolic Activation: NONE, Method: PREINCUBATION) “active; positive”. The mutagenic call was “active; positive” (Test System: AMES SALMONELLA TYPHIMURIUM, Strain/Indicator: TA1535, Metabolic Activation: RAT LIVER S-9, PHENOBARBITAL AND BETA-NAPHTHOFLAVONE, Method: PREINCUBATION); “active; positive” (Test System: AMES SALMONELLA TYPHIMURIUM, Strain/Indicator: TA1535, Metabolic Activation: RAT, LIVER, HOMOGENATE, Method: PREINCUBATION); “inactive; negative” (Test System: AMES SALMONELLA TYPHIMURIUM, Strain/Indicator: TA1537, Metabolic Activation: NONE, Method: PREINCUBATION); “inactive; negative” (Test System: AMES SALMONELLA TYPHIMURIUM, Strain/Indicator: TA1537, Metabolic Activation: RAT LIVER S-9, PHENOBARBITAL AND BETA-NAPHTHOFLAVONE, Method: PREINCUBATION); “inactive; negative” (Test System: AMES SALMONELLA TYPHIMURIUM, Strain/Indicator: TA2638, Metabolic Activation: NONE, Method: STANDARD PLATE); “active; positive” (Test System: E. COLI, Strain/Indicator: WP2 (PKM101), Metabolic Activation: NONE, Method: STANDARD PLATE). Further, the mutagenic call reads like this: (Test System: E. COLI, Strain/Indicator: WP2 UVRA (PKM101), Metabolic Activation: NONE, Method: STANDARD PLATE) “active; positive”; (Test System: E. COLI, Strain/Indicator: WP2 UVRA, Metabolic Activation: NONE, Method: PREINCUBATION) “active; positive”; (Test System: E. COLI, Strain/Indicator: WP2 UVRA, Metabolic Activation: RAT, LIVER, MICROSOMES, PHENOBARBITAL, Method: PREINCUBATION) “active; positive”; (Test System: E.COLI, Strain/Indicator: WP2UVRA, Metabolic Activation: NONE, Method: PREINCUBATION) “active; positive”; (Test System: E.COLI, Strain/Indicator: WP2UVRA, Metabolic Activation: RAT LIVER S-9, PHENOBARBITAL AND BETA-NAPHTHOFLAVONE, Method: PREINCUBATION) “active; positive”.
Take `Nc1c(N=Nc2ccc(-c3ccc(N=Nc4cc(S(=O)(=O)O)c5ccccc5c4N)cc3)cc2)cc(S(=O)(=O)O)c2ccccc12`: the mutagenic call is “active; positive” (Test System: AMES SALMONELLA TYPHIMURIUM, Strain/Indicator: TA98, Metabolic Activation: HAMSTER, LIVER, S-9, Method: PREINCUBATION (PRIVAL METHOD)); “inactive; negative” (Test System: AMES SALMONELLA TYPHIMURIUM, Strain/Indicator: TA98, Metabolic Activation: NONE, Method: STANDARD PLATE); “inactive; negative” (Test System: AMES SALMONELLA TYPHIMURIUM, Strain/Indicator: TA98, Metabolic Activation: RAT, LIVER, S-9, PHENOBARBITAL, Method: STANDARD PLATE); “active; positive” (Test System: AMES SALMONELLA TYPHIMURIUM, Strain/Indicator: TA100, Metabolic Activation: NONE, Method: STANDARD PLATE); “inactive; negative” (Test System: AMES SALMONELLA TYPHIMURIUM, Strain/Indicator: TA100, Metabolic Activation: RAT, LIVER, S-9, PHENOBARBITAL, Method: STANDARD PLATE); “inactive; negative” (Test System: AMES SALMONELLA TYPHIMURIUM, Strain/Indicator: TA1538, Metabolic Activation: HAMSTER, LIVER, S-9, Method: STANDARD PLATE). Further, the mutagenic call is “inactive; negative” (Test System: AMES SALMONELLA TYPHIMURIUM, Strain/Indicator: TA1538, Metabolic Activation: RAT, LIVER, S-9, AROCLOR 1254, Method: STANDARD PLATE); “inactive; negative, test conducted under both aerobic and anaerobic conditions” (Test System: Ames Salmonella typhimurium, Strain/Indicator: TA98, Metabolic Activation: Rat, Liver, S-9, Sodium phenobarbitone, Method: Preincubation); “inactive; negative, test conducted under both aerobic and anaerobic conditions” (Test System: Ames Salmonella typhimurium, Strain/Indicator: TA1538, Metabolic Activation: Rat, Liver, S-9, Sodium phenobarbitone, Method: Preincubation).
As to `CC(=O)OCCN(CCC#N)c1ccc(N=Nc2ccc([N+](=O)[O-])cc2)cc1`, the mutagenic call under setting [1] is “inactive; negative”.
Regarding `CC1(C)O[C@H]1COc1c2ccoc2cc2oc(=O)ccc12`, the mutagenic call (Test System: AMES SALMONELLA TYPHIMURIUM, Strain/Indicator: TA92, Metabolic Activation: NONE, Method: SPOT TEST) was “inactive; negative”; the mutagenic call (Test System: AMES SALMONELLA TYPHIMURIUM, Strain/Indicator: TA92, Metabolic Activation: RAT, LIVER, S-9, AROCLOR 1254, Method: SPOT TEST) is “inactive; negative”; the mutagenic call (Test System: AMES SALMONELLA TYPHIMURIUM, Strain/Indicator: TA94, Metabolic Activation: NONE, Method: SPOT TEST) is “inactive; negative”; the mutagenic call (Test System: AMES SALMONELLA TYPHIMURIUM, Strain/Indicator: TA94, Metabolic Activation: RAT, LIVER, S-9, AROCLOR 1254, Method: SPOT TEST) is “inactive; negative”; the mutagenic call (Test System: AMES SALMONELLA TYPHIMURIUM, Strain/Indicator: TA97, Metabolic Activation: NONE, Method: SPOT TEST) is “inactive; negative”; the mutagenic call (Test System: AMES SALMONELLA TYPHIMURIUM, Strain/Indicator: TA97, Metabolic Activation: RAT, LIVER, S-9, AROCLOR 1254, Method: SPOT TEST) is “inactive; negative”. For the same compound, the mutagenic call runs as follows: (Test System: AMES SALMONELLA TYPHIMURIUM, Strain/Indicator: TA98, Metabolic Activation: NONE, Method: SPOT TEST) “inactive; negative”; (Test System: AMES SALMONELLA TYPHIMURIUM, Strain/Indicator: TA98, Metabolic Activation: RAT, LIVER, S-9, AROCLOR 1254, Method: SPOT TEST) “inactive; negative”; (Test System: AMES SALMONELLA TYPHIMURIUM, Strain/Indicator: TA100, Metabolic Activation: NONE, Method: SPOT TEST) “inactive; negative”; (Test System: AMES SALMONELLA TYPHIMURIUM, Strain/Indicator: TA100, Metabolic Activation: RAT, LIVER, S-9, AROCLOR 1254, Method: SPOT TEST) “inactive; negative”; (Test System: AMES SALMONELLA TYPHIMURIUM, Strain/Indicator: TA102, Metabolic Activation: NONE, Method: SPOT TEST) “inactive; negative”; (Test System: AMES SALMONELLA TYPHIMURIUM, Strain/Indicator: TA102, Metabolic Activation: RAT, LIVER, S-9, AROCLOR 1254, Method: SPOT TEST) “inactive; negative”.
